Source: US20260008787A1, “FUSED RING KRAS INHIBITORS FOR TREATING DISEASE” (BLOSSOMHILL THERAPEUTICS, INC., priority 2022, published 2026)

Key:
Format in all cases: cell-based
GP2D (KRAS G12D) = experiment: Cell proliferation assay (CellTiter-Glo, 72 hours), GP2D; details: GP2d, 72 h, 384-well, CellTiter-Glo 2.0
Description: (§1) Two thousand KRAS mutant cells per well were seeded in 384-well white plate and then treated with indicated compounds for 72 hours at 37° C. and 5% CO2. Cell proliferation was measured using CellTiter-Glo 2.0 luciferase-based ATP detection assay (Promega, Madison, WI) following the manufacturer's protocol. IC50 values were determined using Prism software (GraphPad Software, San Diego, CA).

AGS (G12D) = experiment: Cell proliferation assay (CellTiter-Glo, 72 hours), AGS; details: 72 h, 384-well, CellTiter-Glo 2.0
Description: as §1

SW620 (KRAS G12V) = experiment: Cell proliferation assay (CellTiter-Glo, 72 hours), SW620; details: Homo sapiens, SW-620, 72 h, 384-well, CellTiter-Glo 2.0
Description: as §1

IC50 (AGS (G12D)) [nM]	IC50 (SW620 (KRAS G12V)) [nM]	SMILES	IC50 (GP2D (KRAS G12D)) [nM]
> 3000	> 3000	C#Cc1c(F)ccc2cc(O)cc(-c3nc4c5c(nc(OC[C@@]67CCCN6C[C@H](F)C7)nc5c3F)N(Cc3ccccc3)[C@@H](CO)CO4)c12 [Example 80, 4-[(9S)-10-benzyl-4-fluoro-2-{[(2R,7aS)-2-fluorotetrahydro-1H-pyrrolizin-7a(5H)-yl]methoxy}-9-(hydroxymethyl)-9,10-dihydro-8H-7-oxa-1,3,6,10-tetraazacyclohepta[1,2,3-de]naphthalen-5-yl]-5-ethynyl-6-fluoronaphthalen-2-ol]	> 3000
> 3000	2270	C#Cc1c(F)ccc2cc(O)cc(-c3nc4c5c(nc(OC[C@@]67CCCN6C[C@H](F)C7)nc5c3F)N(C)[C@@H](C(C)C)CO4)c12 [Example 51, 5-ethynyl-6-fluoro-4-[(9S)-4-fluoro-2-{[(2R,7aS)-2-fluorotetrahydro-1H-pyrrolizin-7a(5H)-yl]methoxy}-10-methyl-9-(propan-2-yl)-9,10-dihydro-8H-7-oxa-1,3,6,10-tetraazacyclohepta[1,2,3-de]naphthalen-5-yl]naphthalen-2-ol]	216
623	693	C#Cc1c(F)ccc2cc(O)cc(-c3nc4c5c(nc(OC[C@@]67CCCN6C[C@H](F)C7)nc5c3F)N(C)[C@@H](C3CC3)CO4)c12 [Example 32, 4-[(9S)-9-cyclopropyl-4-fluoro-2-{[(2R,7aS)-2-fluorotetrahydro-1H-pyrrolizin-7a(5H)-yl]methoxy}-10-methyl-9,10-dihydro-8H-7-oxa-1,3,6,10-tetraazacyclohepta[1,2,3-de]naphthalen-5-yl]-5-ethynyl-6-fluoronaphthalen-2-ol]	293
> 3000	> 3000	C#Cc1c(F)ccc2cc(O)cc(-c3nc4c5c(nc(OC[C@@]67CCCN6C[C@H](F)C7)nc5c3F)N[C@H]3CCC[C@H]3O4)c12 [Example 102, 5-ethynyl-6-fluoro-4-[(7aR,10aS)-4-fluoro-2-{[(2R,7aS)-2-fluorotetrahydro-1H-pyrrolizin-7a(5H)-yl]methoxy}-7a,8,9,10,10a,11-hexahydro-7-oxa-1,3,6,11-tetraazanaphtho[1,8-fg]azulen-5-yl]naphthalen-2-ol]	> 3000
> 3000	> 3000	CCc1c(F)ccc2cc(O)cc(-c3nc4c5c(nc(OC[C@@]67CCCN6C[C@H](F)C7)nc5c3F)NCCC4)c12 [Example 117, 5-ethyl-6-fluoro-4-(4-fluoro-2-{[(2R,7aS)-2-fluorotetrahydro-1H-pyrrolizin-7a(5H)-yl]methoxy}-7,8,9,10-tetrahydro-1,3,6,10-tetraazacyclohepta[1,2,3-de]naphthalen-5-yl)naphthalen-2-ol]	> 3000
923	> 3000	C#Cc1c(F)ccc2cc(O)cc(-c3nc4c5c(nc(OC[C@@]67CCCN6C[C@H](F)C7)nc5c3F)N(C)[C@H](CO)CO4)c12 [Example 91, 5-ethynyl-6-fluoro-4-[(9R)-4-fluoro-2-{[(2R,7aS)-2-fluorotetrahydro-1H-pyrrolizin-7a(5H)-yl]methoxy}-9-(hydroxymethyl)-10-methyl-9,10-dihydro-8H-7-oxa-1,3,6,10-tetraazacyclohepta[1,2,3-de]naphthalen-5-yl]naphthalen-2-ol]	543
> 3000	> 3000	CCc1c(F)ccc2cc(O)cc(-c3nc4c5c(nc(OC[C@@]67CCCN6C[C@H](F)C7)nc5c3F)N(C)[C@@H](CO)CO4)c12 [Example 28, 5-ethyl-6-fluoro-4-[(9S)-4-fluoro-2-{[(2R,7aS)-2-fluorotetrahydro-1H-pyrrolizin-7a(5H)-yl]methoxy}-9-(hydroxymethyl)-10-methyl-9,10-dihydro-8H-7-oxa-1,3,6,10-tetraazacyclohepta[1,2,3-de]naphthalen-5-yl]naphthalen-2-ol]	> 3000
> 3000	> 3000	C#Cc1c(F)ccc2cc(O)cc(-c3nc4c5c(nc(OC[C@@]67CCCN6C[C@@H](O)C7)nc5c3F)N3CCCC[C@H]3CO4)c12 [Example 101, (2S,7aS)-7a-({[(8aS)-5-(8-ethynyl-7-fluoro-3-hydroxynaphthalen-1-yl)-4-fluoro-8,8a,9,10,11,12-hexahydro-7-oxa-1,3,6,12a-tetraazabenzo[4,5]cyclohepta[1,2,3-de]naphthalen-2-yl]oxy}methyl)hexahydro-1H-pyrrolizin-2-ol]	880
> 3000	> 3000	C#Cc1c(F)ccc2cc(O)cc(-c3nc4c5c(nc(OC[C@@]67CCCN6C[C@H](F)C7)nc5c3F)N[C@@H](C3CC3)CO4)c12 [Example 31, 4-[(9S)-9-cyclopropyl-4-fluoro-2-{[(2R,7aS)-2-fluorotetrahydro-1H-pyrrolizin-7a(5H)-yl]methoxy}-9,10-dihydro-8H-7-oxa-1,3,6,10-tetraazacyclohepta[1,2,3-de]naphthalen-5-yl]-5-ethynyl-6-fluoronaphthalen-2-ol]	1880
> 3000	> 3000	C#Cc1c(F)ccc2cc(O)cc(-c3nc4c5c(nc(OC[C@@]67CCCN6C[C@H](F)C7)nc5c3F)NC3(CC3)CO4)c12 [Example 95, 5-ethynyl-6-fluoro-4-(4′-fluoro-2′-{[(2R,7aS)-2-fluorotetrahydro-1H-pyrrolizin-7a(5H)-yl]methoxy}-8′H,10′H-spiro[cyclopropane-1,9′-[7]oxa[1,3,6,10]tetraazacyclohepta[1,2,3-de]naphthalen]-5′-yl)naphthalen-2-ol]	993
28.3	105	C#Cc1c(F)ccc2cc(O)cc(-c3nc4c5c(nc(OC[C@@]67CCCN6C[C@H](F)C7)nc5c3F)N3C[C@@H](O)CC[C@H]3CO4)c12 [Example 86, (8aS,11S)-5-(8-ethynyl-7-fluoro-3-hydroxynaphthalen-1-yl)-4-fluoro-2-{[(2R,7aS)-2-fluorotetrahydro-1H-pyrrolizin-7a(5H)-yl]methoxy}-8,8a,9,10,11,12-hexahydro-7-oxa-1,3,6,12a-tetraazabenzo[4,5]cyclohepta[1,2,3-de]naphthalen-11-7ol]	9.1
375	150	CCc1c(F)ccc2cc(O)cc(-c3nc4c5c(nc(OC[C@@]67CCCN6C[C@H](F)C7)nc5c3F)N(C)[C@@H](C)CO4)c12 [Example 123, 5-ethyl-6-fluoro-4-[(9S)-4-fluoro-2-{[(2R,7aS)-2-fluorotetrahydro-1H-pyrrolizin-7a(5H)-yl]methoxy}-9,10-dimethyl-9,10-dihydro-8H-7-oxa-1,3,6,10-tetraazacyclohepta[1,2,3-de]naphthalen-5-yl]naphthalen-2-ol]	40.5
760	> 3000	C#Cc1c(F)ccc2cc(O)cc(-c3nc4c5c(nc(OC[C@@]67CCCN6C[C@H](F)C7)nc5c3F)N3C[C@H](O)CC[C@H]3CO4)c12 [Example 29, (8aS,11R)-5-(8-ethynyl-7-fluoro-3-hydroxynaphthalen-1-yl)-4-fluoro-2-{[(2R,7aS)-2-fluorotetrahydro-1H-pyrrolizin-7a(5H)-yl]methoxy}-8,8a,9,10,11,12-hexahydro-7-oxa-1,3,6,12a-tetraazabenzo[4,5]cyclohepta[1,2,3-de]naphthalen-11-ol]	364
